Consider three compounds from patent publication US7238679B2, “Heterocycles and uses thereof” (Ariad Pharmaceuticals, Inc., priority 2002, dated 2007).

Each structure is given as a SMILES string. A value given as a limit tells only on which side of the number the result lay.

For series [1], the system named is MDA-468 tumor cell line. Kind of series: Conventional cell-based assay against the MDA-468 tumor cell line. The source says:
Cell-based methods for measuring antiproliferative activity are well known and can be used for comparative characterization of compounds of this invention. In general, cell proliferation and cell viability assays are designed to provide a detectable signal when cells are metabolically active. Compounds may be tested for antiproliferative activity by measuring any observed decrease in metabolic activity of the cells after exposure of the cells to compound. Commonly used methods include, for example, measurement of membrane integrity (as a measure of cell viability)(e.g. using trypan blue exclusion) or measurement of DNA synthesis (e.g. by measuring incorporation of BrdU or 3H-thymidine).
Some methods for assaying cell proliferation use a reagent that is converted into a detectable compound during cell proliferation. Particularly preferred compounds are tetrazolium salts and include without limitation MTT (3-(4, 5-dimethylthiazol-2-yl)-2,5-diphenyltetrazolium bromide; Sigma-Aldrich, St. Louis, Mo.), MTS (3-(4,5-dimethylthiazol-2-yl)-5-(3-carboxymethoxyphenyl)-2-(4-sulfophenyl)-2H-tetrazolium), XTT (2,3-bis(2-Methoxy4-nitro-5-sulfophenyl)-2H-tetrazolium-5-carboxanilide), INT, NBT, and NTV (Bernas et al. Biochim Biophys Acta 1451(1):73–81, 1999). Preferred assays utilizing tetrazolium salts detect cell proliferation by detecting the product of the enzymatic conversion of the tetrazolium salts into blue formazan derivatives, which are readily detected by spectroscopic methods (Mosman. J. Immunol. Methods. 65:55–63, 1983).
Generally, preferred methods for assaying cell proliferation involve incubating cells in a desired growth medium with and without the compounds to be tested. […] Cells are processed, and the optical density of the cells is determined to measure the amount of formazan derivatives. […]

Consider `CCOP(C)(=O)c1cc2c(Nc3ccc(F)c(Cl)c3)ncnc2cc1OC` (stereo not drawn) [Example 7, 4-[(3-Chloro-4-fluorophenyl)amino]-7-methoxy-6-(ethyl-methylphosphinate)-quinazoline], for which the melting point – broadly, the temperature of the solid-liquid transition – is 199 to 200 °C. Further, the IC50 (usually the concentration that gives 50% inhibition) in series [1] is under 50 µM.

`COc1cc2ncnc(Nc3ccc(F)c(Cl)c3)c2cc1P(C)(C)=O` [Example 3, 4-[(3-Chloro-4-fluorophenyl)amino]-7-methoxy-6-(dimethylphosphinoyl)-quinazoline] yielded a melting point of 257 to 259 °C. In addition, the IC50 in series [1] was under 50 µM.

On to `CCOP(=O)(OCC)c1cc2c(Nc3ccc(F)c(Cl)c3)ncnc2cc1OC` [Example 5, 4-[(3-Chloro-4-fluorophenyl)amino]-7-methoxy-6-(diethylphosphonate)-quinazoline], for which the melting point lay in the range of 215 to 217 °C. The IC50 in series [1] was under 50 µM.
